Assay results published in patent US9985214B2, “Monoamine compound, charge transport material, composition for charge transport film, organic electroluminescent element, organic EL display, and organic EL lighting” (Mitsubishi Chemical Corporation, priority 2009, dated 2018).

Experiments:
Type in all cases: physicochemical
[1] = Measurement of solubility in m-xylene; parameters: key: +: The compound dissolved.; −: The compound remained undissolved, giving a suspension, or separated out as crystals in 12 hours
From the text: <Measurement of Solubility in m-Xylene>
The compound I synthesized in [Synthesis of Compound I] above and the comparative compounds X-A and X-B represented by the following structural formulae were examined for solubility in m-xylene.

[2] = Glass transition temperature of the compound
[3] = Dissolution of the compound in the composition for luminescent-layer formation / production of element; settings: same procedure as Example 2, cyclohexylbenzene as solvent; production of an element was impossible
Experimental: Next, a composition for luminescent-layer formation which included compound C3 represented by the following formula and the compound II obtained in Synthesis Example as charge-transporting compounds, phosphorescent metal complex D2, and cyclohexylbenzene as a solvent was prepared. The concentrations of the compound C3, the compound II, and the phosphorescent metal complex D2 in the composition were 1.25% by mass, 3.75% by mass, and 0.7% by mass, respectively.
The same procedure as in Example 2 was conducted, except that the compound X-C was used in place of the compound II.

Compound	Solubility in m-xylene, Concentration 1.0 mass % [1]	Solubility in m-xylene, Concentration 5.0 mass % [1]	Solubility in m-xylene, Concentration 10 mass % [1]	Glass transition temperature [2] [°C]	behaviour of the compound after dissolution in the composition for luminescent-layer formation [3]
c1cc(-c2ccc(N(c3ccc(-c4cccc(-n5c6ccccc6c6ccccc65)c4)cc3)c3ccc(-c4cccc(-n5c6ccccc6c6ccccc65)c4)cc3)cc2)cc(-n2c3ccccc3c3ccccc32)c1 [X-A]	+	−	−	159	
c1ccc(-c2cccc(-c3ccc(N(c4ccc(-c5cccc(-n6c7ccccc7c7ccccc76)c5)cc4)c4ccc(-c5cccc(-n6c7ccccc7c7ccccc76)c5)cc4)cc3)c2)cc1 [X-B]	−	−	−	120	
c1ccc(-c2cccc(-c3ccc(N(c4ccc(-c5cccc(-c6cccc(-n7c8ccccc8c8ccccc87)c6)c5)cc4)c4ccc(-c5cccc(-n6c7ccccc7c7ccccc76)c5)cc4)cc3)c2)cc1 [Compound I]	+	+	+	127	
c1ccc(-c2ccc(-c3ccc(N(c4ccc(-c5cccc(-c6cccc7ccccc67)c5)cc4)c4ccc(-c5cccc(-n6c7ccccc7c7ccccc76)c5)cc4)cc3)cc2)cc1 [Compound X-C]					crystallized after dissolved
